The text below walks through data of the supplement of paper PMC10290057.

In assay [1] the test system is HCT116. The experiment in a line: efficacy (fitted maximal change in viability relative to DMSO control); higher = less cytotoxic (negative = loss of viability). The settings on record: 48 h.
Assay [2] has as its system HCT116. Put plainly: AC50 cell viability (CellTiter-Glo); higher = less potent. The note with it: 48 h. (Cellular ATP, detected with luciferase, serves as a proxy for viable cell number.)

Counter-ions that a name gives are not always drawn.
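Wherever AC50 cell viability (CellTiter-Glo) is given: HCT116 colorectal carcinoma cells screened at five concentrations per compound, luminescent viability scaled between DMSO wells and empty wells on each plate, curves fitted per compound.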
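Wherever efficacy (fitted maximal change in viability relative to DMSO control) is given: Luminescence-based viability readout, five doses per compound, normalized against on-plate DMSO and empty-well controls, followed by dose-response curve fitting for every drug.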

Take `Cc1ccc(NC(=O)c2ccc(CN3CCNCC3)cc2)cc1Nc1nccc(-c2cccnc2)n1`: in assay [1], the efficacy was -93.9%. This compound also gave an AC50 cell viability in assay [2] of 18.6 µM. For `CC1=C2N=C([NH]C2=CC(=C1)N3CCOCC3)\C4=C(NC[C@@H](O)C5=CC=CC(=C5)Cl)\C=C/NC4=O` the same measures were -93.9% and 6.61 µM. On to `Cc1c(NC(=O)OCC2COCCN2)cn2ncnc(Nc3ccc4c(cnn4Cc4cccc(F)c4)c3)c12` (centres undefined), for which the efficacy in assay [1] was -91.3%. In addition, the AC50 cell viability in assay [2] was determined as 26.3 µM. On the same counts, the results for `CCc1ccc2nc(Nc3cc(Cc4ccccc4)nc(N[C@H]4CC[C@H](O)CC4)n3)sc2c1` are -65.1% and 18.6 µM. On the same counts, the results for `CCN(CC)CCCCNc1nc2cc(Cl)c(Cl)cc2nc1-c1ccc(-c2cccs2)s1` are -97.7% and 23.5 µM. For `CCOC1=CC(=CC=C1C/2=N/[C@@](C)(C3=CC=C(Cl)C=C3)[C@](C)(N2C(=O)N4CCN(CC4)CC(=O)N5CCOCC5)C6=CC=C(Cl)C=C6)C(C)(C)C` the same measures were -114% and 9.17 µM. For `CN1CCN(CC1)C2=CC=C(NC3=NC=C4\C=C(\C#N)C(=O)N(C5CCCC5)C4=N3)C=C2`, the efficacy in assay [1] is -77.1%. For the same compound, in assay [2], the AC50 cell viability worked out at 1.32 µM.

For the compound `CNC(=O)c1c(F)cccc1Nc1nc(Nc2cc3c(cc2OC)CCN3C(=O)CN(C)C)nc2[nH]ccc12`, in assay [1], the efficacy is -131%. Further, the AC50 cell viability in assay [2] turned out to be 5.25 µM. On the same counts, the results for `CNC(=O)C1=CC=C(C)C(=C1)N2C(=C/C(=C(/Br)C2=O)OCC3=C(F)C=C(F)C=C3)\C` are -41.4% and 16.6 µM. Take `CNC(=O)Nc1ccc(-c2nc(N3CC4CCC(C3)O4)c3cnn(C4CCC5(CC4)OCCO5)c3n2)cc1`: the efficacy in assay [1] was -96.3%. The compound further registered an AC50 cell viability in assay [2] of 1.18 µM.

For the compound `COc1cc(Oc2ccnc3cc(OC)c(OC)cc23)ccc1NC(=O)NC(C)c1nccs1` (centres undefined), the efficacy in assay [1] is -63.5%. The AC50 cell viability in assay [2] turned out to be 20.9 µM. For `COc1cc2ncnc(Oc3cccc(NC(=O)Nc4cc(C(C)(C)C(F)(F)F)on4)c3)c2cc1OC` the same measures were -66.5% and 3.72 µM. On the same counts, the results for `C[C@@H](Oc1cc(-n2cnc3ccc(CN4CCN(C)CC4)cc32)sc1C(N)=O)c1ccccc1C(F)(F)F` are -57.6% and 0.0468 µM. For `C[C@H](NC(=O)c1sccc1OCc1ccc(Cl)cc1)c1ccccc1` the same measures were -50.9% and 16.6 µM. Regarding `Cc1ccc(-c2ccc3ncc4c(c3n2)n(C2CCN(C(=O)[C@H](C)O)CC2)c(=O)n4C)cn1`, the efficacy in assay [1] is -86.9%. In assay [2], this compound had an AC50 cell viability of 0.166 µM.

For `Cn1ncc(Cl)c1-c1cc(C(=O)NC(CN)Cc2ccc(F)c(F)c2)oc1Cl` (centres undefined), the efficacy in assay [1] is -117%. Also, the AC50 cell viability in assay [2] worked out at 13.2 µM. On the same counts, the results for `C[S+]([O-])c1ccc(-c2nc(-c3ccc(F)cc3)c(-c3ccncc3)[nH]2)cc1` (centres undefined) are -83.2% and 18.6 µM. On the same counts, the results for `O=C(/C=C/c1ccc(Cl)cc1)N1CCC2(CC1)CN(Cc1ccc(Cl)c(Cl)c1)C(=O)O2` are -85.1% and 23.5 µM. On the same counts, the results for `ClC1=C[NH]N=C1C\2NC(=N\C3=C2C(=O)CCC3)/NC4=NC5=CC=CC=C5O4` (centres undefined) are -63.3% and 18.6 µM. Consider `O=C(NOCC1CC1)c1ccc(F)c(F)c1Nc1ccc(I)cc1Cl`, for which the efficacy in assay [1] is -126%. In addition, the AC50 cell viability in assay [2] came to 4.68 µM.

Consider `N#Cc1ccc(-c2c(-c3nnc[nH]3)sc(N3CCOCC3)c2C#N)c(F)c1`, for which, in assay [1], the efficacy is -83.5%. For the same compound, in assay [2], the AC50 cell viability was determined as 1.86 µM. On the same counts, the results for `NC1(Cc2ccc(Cl)cc2)CCN(c2ncnc3[nH]ccc23)CC1` are -95.2% and 13.2 µM. For the compound `NC1=C(Cl)C(=CC=N1)OC2=C(F)C=C(NC(=O)\C3=C\N\C=C(C3=O)\C4=CC=C(F)C=C4)C=C2`, in assay [1], the efficacy is -78.4%. In assay [2], this compound displayed an AC50 cell viability of 16.6 µM. For `Nc1ccc(C(=O)Nc2cccc(-c3nc(N4CCOCC4)c4oc5ncccc5c4n3)c2)cn1` the same measures were -88.1% and 5.9 µM. For `Nc1n[nH]c2nnc(-c3c(-c4ccccc4)nn4ccccc34)cc12` the same measures were -41.3% and 18.6 µM. On the same counts, the results for `O=C(NOCC(O)CO)c1ccc(F)c(F)c1Nc1ccc(I)cc1F` (centres undefined) are -68.6% and 0.166 µM. Take `OCCn1cc(-c2ccc3c(c2)CC/C3=N\O)c(-c2ccncc2)n1`: in assay [1], the efficacy is -55.7%. For the same compound, the AC50 cell viability in assay [2] was determined as 4.68 µM. For `N#Cc1ccc2c(c1)CN([S+](=O)([O-])c1cccs1)[C@H](Cc1ccccc1)CN2Cc1cnc[nH]1` the same measures were -73.3% and 0.417 µM.

With `Cc1ccc(C(=O)Nc2ccc(CN3CCN(C)CC3)c(C(F)(F)F)c2)cc1C#Cc1cnc2cccnn12` [Ponatinib], in assay [2], the AC50 cell viability is 1.48 µM. Turning to `CCCC1=NC(=C2[N]1NC(=N\C2=O)/C3=CC(=CC=C3OCC)[S+]([O-])(=O)N4CCN(CC)CC4)C` [Vardenafil], the efficacy in assay [1] is -19.1%.

With `CCc1c(C(=O)C(N)=O)c2c(OCC(=O)O)cccc2n1Cc1ccccc1` [Varespladib], the efficacy in assay [1] was -27.8%. The same measure, in the same setting: the result for `Clc1ccc(Nc2nnc(Cc3ccncc3)c3ccccc23)cc1` [Vatalanib] reads -27.3%; that for `CC(=O)O[C@H]1C[C@@H]2CC[C@@H]3[C@H](CC[C@@]4(C)[C@H]3C[C@H]([N+]3(C)CCCCC3)[C@@H]4OC(C)=O)[C@@]2(C)C[C@@H]1N1CCCCC1.[Br-]` [Vecuronium bromide], -10.9%. For `O=C(O)[C@@H](c1ccc(OCc2ccc3ccccc3n2)cc1)C1CCCC1` [Veliflapon], in assay [1], the efficacy was -10.1%. Same read-out and setting: as for `C[C@]1(c2nc3c(C(N)=O)cccc3[nH]2)CCCN1` [Veliparib], the figure is -31.3%; as for `CCC[S+](=O)([O-])Nc1ccc(F)c(C(=O)c2c[nH]c3ncc(-c4ccc(Cl)cc4)cc23)c1F` [Vemurafenib], 9.66%; as for `CC1(C)CCC(=C(\C1)C2=CC=C(Cl)C=C2)/CN3CCN(CC3)C4=CC(=C(C=C4)C(=O)N[S+]([O-])(=O)C5=CC=C(NCC6CCOCC6)C(=C5)[N+]([O-])=O)OC7=CN=C8[NH]C=CC8=C7` [Venetoclax (ABT-199)], -73.3%. In turn, `COc1ccc(CCN(C)CCCC(C#N)(c2ccc(OC)c(OC)c2)C(C)C)cc1OC` (centres undefined) [Verapamil] gave an AC50 cell viability in assay [2] of 18.6 µM. With `CCCCOc1nc(N)c2c(n1)N(Cc1cccc(CN3CCCC3)c1)CC(=O)N2` [Vesatolimod], in assay [1], the efficacy is -47.6%. Regarding `COc1ccc(C(=O)N2CCN(c3ccc4c(c3)CCC(=O)N4)CC2)cc1OC` [Vesnarinone], in assay [1], the efficacy is -21.4%. On the same count and under the same terms, the result for `Nc1ncnc2c1ncn2[C@@H]1O[C@H](CO)[C@@H](O)[C@@H]1O` [Vidarabine] reads -11.4%; that for `C[S+](=O)([O-])c1ccc(C(=O)Nc2ccc(Cl)c(-c3ccccn3)c2)c(Cl)c1` [Vismodegib], -23.8%; that for `CCOC(=O)N[C@@H]1CC[C@@H]2[C@@H](C1)C[C@H]1C(=O)O[C@H](C)[C@H]1[C@H]2/C=C/c1ccc(-c2cccc(F)c2)cn1` [Vorapaxar], -40.6%. Same read-out and setting: the result for `C[C@@H](c1ncncc1F)[C@](O)(Cn1cncn1)c1ccc(F)cc1F` [Voriconazole] reads -12.1%. The same measure, in the same setting: the result for `O=C(CCCCCCC(=O)Nc1ccccc1)NO` [Vorinostat (SAHA)] reads -81%. For `CN[C@@H]1CN(C[C@H]1OC)C2=NC3=C(C=C2)C(=O)C(=C\N3C4=NC=CS4)/C(O)=O` [Vosaroxin], the efficacy in assay [1] is -17.8%. The same measure, in the same setting: the result for `Cc1c(F)ccc(C(=O)Nc2cc([N+](=O)[O-])ccc2N2CCN(C)CC2)c1Cl` [WDR5-C47] reads -7.44%. Same read-out and setting: the result for `COc1cc2ncnc(Nc3cc(Br)c(O)c(Br)c3)c2cc1OC` [WHI-P97] reads -37.8%; that for `C[C@H](NC(=O)/C(C#N)=C/c1cccc(Br)n1)c1ccccc1` [WP-1066], -83.5%; that for `Cc1cc(-c2ccc(CC(=O)Nc3ccc(-c4cccnc4)cc3)cc2)ccn1` [Wnt-C59], -33.8%. Same read-out and setting: the result for `O=C(Nc1ccc(-c2ccnc(Nc3ccc(N4CCOCC4)cc3)n2)cc1)C1CCCN1` (centres undefined) [XL-019] reads -19.1%; that for `Cc1ccc([S+](=O)([O-])Nc2nc3ccccc3nc2Nc2ccc3nsnc3c2)cc1` [XL-147], -12%. For `CC1=CC(=CC(=C1C\C2=N\CCN2)C)C(C)(C)C` [Xylometazoline hydrochloride], the efficacy in assay [1] is -32.9%.

Consider `N#Cc1ccc(N(Cc2ccc(Br)cc2)n2cnnc2)cc1` [YM-511], for which the efficacy in assay [1] is -14.3%. Same read-out and setting: as for `COC(=O)[C@@H]1[C@H]2C[C@H]3c4[nH]c5ccccc5c4CCN3C[C@@H]2CC[C@@H]1O` [Yohimbine], the figure is -8.81%; as for `CC(C(=O)O)c1ccc2c(c1)CC(=O)c1ccccc1S2` (centres undefined) [Zaltoprofen], 8.02%. On the same count and under the same terms, as for `OC[C@H]1O[C@H]([C@H](O)[C@@H]1O)N2/C=C\C=N/C2=O` [Zebularine], the figure is -11.7%; as for `CC(c1cc2ccccc2s1)N(O)C(N)=O` (centres undefined) [Zileuton], -26.8%; as for `CC1=C(/C=C/C(C)=C/C=C/C(C)=C/C=C/C=C(C)/C=C/C=C(C)/C=C/C2=C(C)CCCC2(C)C)C(C)(C)CCC1` [beta-Carotene], -21.3%. Still for that read-out and setting: the result for `CCCCn1c(=O)n(Cc2ccccc2F)c(=O)c2nc(Cc3ccc(NC(C)=O)cc3)[nH]c21` [cPEPCK Inhibitor] reads -8.36%; that for `CC/1=C2/N(C(=O)C(=C1)/NC3=CC(=NC=N3)N)C4(CCCCC4)NC2=O` [eFT508], -7.54%.
